Usually IC50 stands for the concentration that gives 50% inhibition. What is called CC50 is the concentration giving 50% cytotoxicity.

Drawing on patent US6939896B2, “Cd45 inhibitors” (AstraZeneca AB, priority 1999, dated 2005), this text covers IC50 and CC50 for 18 molecules.

In data set [1] the target is T1, CD45 (Homo sapiens, UniProt P08575).
T1 construct: incubating the cytosolic portion of CD45 with the compounds and p-nitrophenyl phosphate (pNPP); purchased BIOMOL (Plymouth Meeting, Pa.)
T1 sequence (P08575 599-1306 limits assumed): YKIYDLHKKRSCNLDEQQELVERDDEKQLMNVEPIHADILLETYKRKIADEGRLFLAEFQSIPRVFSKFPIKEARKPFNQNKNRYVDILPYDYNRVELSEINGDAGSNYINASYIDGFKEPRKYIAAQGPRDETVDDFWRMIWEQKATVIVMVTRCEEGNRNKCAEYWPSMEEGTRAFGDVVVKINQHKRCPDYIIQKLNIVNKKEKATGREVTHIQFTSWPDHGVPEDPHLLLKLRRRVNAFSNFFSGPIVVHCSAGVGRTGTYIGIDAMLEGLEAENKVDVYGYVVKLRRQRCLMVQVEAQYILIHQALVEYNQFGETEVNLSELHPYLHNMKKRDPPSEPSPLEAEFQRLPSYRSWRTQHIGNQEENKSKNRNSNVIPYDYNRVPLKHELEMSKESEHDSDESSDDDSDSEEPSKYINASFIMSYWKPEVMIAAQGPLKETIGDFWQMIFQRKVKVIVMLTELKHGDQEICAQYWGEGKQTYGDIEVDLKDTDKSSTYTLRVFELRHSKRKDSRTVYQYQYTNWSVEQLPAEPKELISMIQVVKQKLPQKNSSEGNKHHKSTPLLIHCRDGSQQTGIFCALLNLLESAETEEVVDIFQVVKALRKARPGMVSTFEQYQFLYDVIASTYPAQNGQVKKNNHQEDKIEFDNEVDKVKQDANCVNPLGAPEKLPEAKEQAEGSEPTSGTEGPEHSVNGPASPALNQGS
Briefly: Phosphatase assay using pNPP as substrate. Type of data set: biochemical. The conditions noted are these: pH 7.0. Here is the method: (§1) Potent inhibitors of CD45 have been discovered. Such inhibitors are useful for the treatment of various autoimmune disorders as well as for treatment of OGR. Inhibition of the phosphatase activity of CD45 by compounds of the present invention has been shown by incubating the cytosolic portion of CD45 with the compounds and p-nitrophenyl phosphate (pNPP), a phosphatase substrate. Spectrophotometric monitoring has shown that the liberation of p-nitrophenol from the substrate by CD45 is inhibited in the presence of the compounds disclosed herein. Inhibition of the phosphatase activity of CD45 by compounds of the present invention has also been shown using a p56^lck carboxy-terminal phosphorylated peptide as a substrate.
CD45 enzyme was obtained from BIOMOL (Plymouth Meeting, Pa.). Phosphatase activity was assayed in a buffer containing final concentrations of 25 mM imidazole at pH 7.0, 50 mM NaCl, 2.5 mM ethylenediaminetetraacetic acid (“EDTA”), 5 mM dithiothreitol (“DTT”) and 10 μg/mL bovine serum albumin (“BSA”) using pNPP as a substrate.
Activity was measured by following the increase in absorbance at 405 nm using a SpectraMax Plus spectrophotometric plate reader (Molecular Devices, Sunnyvale, Calif.).

In data set [2] the target is T1, CD45. Put plainly: Phosphatase assay using lck 10-mer as substrate. The conditions noted are these: lck carboxy-terminal peptide TEGQpYQPQP substrate, pH 7.2, 5% DMSO, read-out: Ick IC50. Type of data set: biochemical. How it is done:
as §1
Phosphatase activity was assayed in 96 well plates in a buffer containing final concentrations of 25 mM HEPES at pH 7.2, 5 mM DTT and 10 μg/mL BSA, using the lck carboxy-terminal peptide TEGQpYQPQP as the substrate (Cho, H., Krishnaraj. R., Itoh. M., Kitas, E., Bannwarth, W., Saito, H., Walsh, C. T. 1993. Substrate specificities of catalytic fragments of protein tyrosine phosphatases (HPTPb, LAR. and CD45) toward the phosphotyrosylpeptide substrates and thiophosphotyrosylated peptides as inhibitors. Protein Science 2:977-984). Compounds were tested in a range from 30 to 0.01 μM in a final concentration of 5% DMSO. Enzyme was incubated with substrate. with or without compound, at room temperature for 1.5 h. At the end of the incubation period, BIOMOL “Green Reagent” (BIOMOL, Plymouth Meeting, Pa.) was added to each well, the plates incubated at room temperature for 30 min and absorbance read at 620 nm.

Data set [3] is described as follows: Cytotoxicity assay (Calcein-AM uptake). Type of data set: cell-based. The settings on record: human, T-cell lymphoblasts (PHA-expanded PBMC), overnight incubation, Calcein-AM viability.
In data set [4] the test system is Peripheral blood mononuclear cells (T cells). Put plainly: T cell proliferation assay (anti-CD3 OKT3-activated PBMC, [3H]thymidine). The conditions noted are these: human PBMC activated with OKT3 30 ng/mL, read-out: T cell prolif. IC50. Type of data set: cell-based. How it is done:
Whole blood was obtained from healthy human blood donors. Peripheral blood mononuclear cells (“PBMC”) were isolated using Lymphoprep density-gradient centrifugation (Nycomed Amersham, Oslo, Norway), washed, counted and resuspended at 2×10^6 cells/mL in RPMI 1640 medium containing glutamine, 0.1 mg/mL gentamycin and 10% heat inactivated human serum. PBMC were transferred to 96-well plates (2×10^5 cells/well) containing compound or vehicle control, with the final concentration of DMSO not to exceed 0.3% and incubated for 1 hour before addition of the activating anti-CD3 antibody, OKT3 (30 ng/mL). After 24 hours in culture, the cells were pulsed with [3H]thymidine (1 μCi/well) overnight and harvested the next day onto 96-well Packard GF/C filter plates using a Packard Cell Harvester (Packard Instruments, Meriden, Conn.). The filter plate was dried, the bottom of the plate sealed, 25 μL of Microscint 20 scintillation fluid added to each well, the top of the plate sealed with TopSeal-A, and the plate counted on a Packard TopCount. The data from the TopCount is transferred into Excel 5 (Microsoft, Redmond, Wash.) and formatted for EC50 determination using Prism software (GraphPad Software, San Diego, Calif.).

For the molecule `COC(=O)c1cccc2c1C=CC(=O)C2=O` [Example 16, 5,6-Dioxo-5,6-dihydro-naphthalene-1-Carboxylic acid methyl ester], the IC50 in data set [1] was 11 µM; in data set [2] it was above 30 µM. In addition, the CC50 in data set [3] was above 30 µM.

Regarding `Cn1cc(C2=CC(=O)C(=O)c3ccccc32)c2ccccc21` [Example 7, 4-(1-Methyl-1H-indol-3-yl)-[1,2]naphthoquinone], the values for the IC50 in data set [1], in data set [2] and in data set [4] were 5 µM, 19 µM and 1.5 µM, respectively. Moreover, the half-maximal cytotoxic concentration (CC50) in data set [3] is above 30 µM.

For `O=C1C=C(c2ccccc2)c2ccccc2C1=O` [Example 11, 4-Phenyl-[1,2]naphthoquinone], the IC50 was 5 µM in data set [1], above 30 µM in data set [2] and 0.15 µM in data set [4]. Moreover, in data set [3], the CC50 was 12 µM.

In the case of `O=C1C=C(c2cc(Cl)cc(Cl)c2)c2ccccc2C1=O` [Example 13, 4-(3,5-Dichloro-phenyl)-[1,2]naphthoquinone], the IC50 worked out at 5.5 µM in data set [1] and 0.3 µM in data set [4]. Further, in data set [3], the CC50 was 5.5 µM.

Consider `COC(=O)c1ccc2c(c1)C=CC(=O)C2=O` [Example 17, 5,6-Dioxo-5,6-dihydro-naphthalene-2-Carboxylic acid methyl ester], for which the IC50 in data set [1] is 7 µM; in data set [2] it was above 30 µM; in data set [4] it was 7 µM. Moreover, the 50% cytotoxic concentration (CC50) in data set [3] is above 30 µM.

With `O=C1C=Cc2cc(C(=O)c3ccccc3)ccc2C1=O` [Example 15, 6-Benzoyl-[1,2]naphthoquinone], the IC50 in data set [1] was 22 µM; in data set [2], above 30 µM; in data set [4], 11 µM. Also, the cytotoxic concentration (CC50) in data set [3] was above 30 µM.

As for `COC1=CC(=O)C(=O)c2ccccc21` [Example 3, 4-Methoxy-[1,2]naphthoquinone], the IC50 in data set [1] was 1.2 µM; in data set [2] it was 4.2 µM; in data set [4], above 30 µM.

`O=C1C=C(c2ccccc2Cl)c2ccccc2C1=O` [Example 9, 4-(2-Chloro-phenyl)-[1,2]naphthoquinone]: the IC50 is 8 µM in data set [1], above 30 µM in data set [2] and 0.3 µM in data set [4]. Also, in data set [3], the CC50 was 124 µM.

Turning to `O=C1C=C(c2cccc([N+](=O)[O-])c2)c2ccccc2C1=O` [Example 14, 4-(3-Nitro-phenyl)-[1,2]naphthoquinone], the figures for the IC50 in data set [1], in data set [2] and in data set [4] were 7.9 µM, above 30 µM and 0.2 µM, respectively. In addition, the CC50 in data set [3] was 4 µM.

On to `C=CCOC1=CC(=O)C(=O)c2ccccc21` [Example 4, 4-Allyloxy-[1,2]naphthoquinone], for which the results for the IC50 in data set [1], in data set [2] and in data set [4] were 1.2 µM, 4.9 µM and above 30 µM, respectively. The CC50 in data set [3] is above 30 µM.

`CCOC1=CC(=O)C(=O)c2ccccc21` [Example 2, 4-Ethoxy-[1,2]naphthoquinone]: the results for the IC50 in data set [1] and in data set [4] were 2 µM and above 30 µM, respectively. The CC50 in data set [3] was 30 µM.

In the case of `O=C1C=C(c2c(-c3ccccc3)[nH]c3ccccc23)c2ccccc2C1=O` [Example 8, 4-(2-Phenyl-1H-indol-3-yl)-[1,2]naphthoquinone], the IC50 in data set [1] was found to be 2.9 µM; in data set [2], 20 µM; in data set [4], 2 µM. The CC50 in data set [3] was 16 µM.

With `O=C1C=C(Br)c2ccccc2C1=O` [Example 6, 4-Bromo-[1,2]naphthoquinone], the IC50 in data set [1] was 8.7 µM; in data set [2], above 30 µM; in data set [4], 22 µM. Besides, in data set [3], the CC50 is above 30 µM.

Take `O=C1C=C(c2ccc(Br)cc2)c2ccccc2C1=O` [Example 10, 4-(4-Bromo-phenyl)-[1,2]naphthoquinone]: the IC50 in data set [1] was 7.7 µM; in data set [2], above 30 µM; in data set [4], 0.11 µM. In addition, the CC50 in data set [3] was 3 µM.

As for `O=C1C=Cc2ccc(O)cc2C1=O` [Example 18, 7-Hydroxy-[1,2]naphthoquinone], the IC50 in data set [1] was 4.9 µM; in data set [4] it was above 30 µM. For the same molecule, in data set [3], the CC50 was above 30 µM.

For the molecule `O=C1C=C(Cl)c2ccccc2C1=O` [Example 5, 4-Chloro-[1,2]naphthoquinone], the results for the IC50 in data set [1], in data set [2] and in data set [4] were 10 µM, above 30 µM and above 30 µM, respectively. In addition, the CC50 in data set [3] was above 30 µM.

In the case of `O=C1C=Cc2ccccc2C1=O` [Example 1, [1,2]-Naphthoquinone], the IC50 is 3 µM in data set [1], above 30 µM in data set [2] and 7 µM in data set [4]. Moreover, the CC50 in data set [3] is above 30 µM.

Consider `O=C1C=C(c2cccc3ccccc23)c2ccccc2C1=O` [Example 12, [1,1′]Binaphthalenyl-3,4-dione], for which the concentration for half-maximal inhibition (IC50) was 22.5 µM in data set [1], above 30 µM in data set [2] and 3.2 µM in data set [4]. Also, in data set [3], the CC50 was above 30 µM.
